The text below walks through data of a melting point compilation (Tetko et al.; mined from patent text by program, amines drawn as free bases though some values may be those of a salt).

`CC1Nc2ccc(-c3ccc(C#N)[nH]3)cc2C(C)(C)O1` (stereo unspecified) displayed a melting point of 201 to 202 °C.
To `O=C1CNC(=O)N1c1ccc([N+](=O)[O-])cc1` belongs 250 to 251 °C.
To `CCOC1=NS(=O)(=O)C(S(C)(=O)=O)=C1N` belongs 214 to 217 °C.
Under `CC(C)(O)c1ccc(-c2cnc3c(n2)N(CCC2CCOCC2)CC(=O)N3)cc1` stands 210 to 212 °C; under `C=CCNC(=O)C=C(C)N`, 143 to 144 °C.
Take `CN1C(=O)CCC(C)(C)c2cc(Nc3ncc(Cl)c(Nc4ccccc4-n4cccn4)n3)ccc21`: the melting point was 136 to 138 °C.
Under `COCCOCOc1c(C(C)(C)C)cc(C(=N)NN)cc1C(C)(C)C` stands 133 °C; under `Cn1ncc(N2CCCCC2)c(C=NO)c1=O`, 170 to 171 °C; under `CCc1cc(C(=O)c2ccccc2Cl)c(-n2c(CNC(=O)c3ccc(Cl)c(Cl)c3)nnc2C(F)(F)F)s1`, 75 to 80 °C.
As for `CC1Oc2c(cc(Cl)cc2C(=O)O)NC1=O` (stereo unspecified), the melting point was in the range of 319 to 320 °C.
`COc1ccc(NCCNC(=O)c2ccc(OCC=C(C)CCC=C(C)C)cc2)cn1` registered a melting point of 97.9 to 99.3 °C.
Under `Cc1nc(-c2cccc(CN3C(=O)C4(COc5cc6c(cc54)OCCO6)c4ccccc43)c2)no1` (stereo unspecified) stands 90 to 95 °C; under `CC(Oc1ccc(-c2ccc(C#N)c(C#N)c2)cc1)C(O)CCc1cccnc1` (stereo unspecified), 136 to 137 °C.
To `O=C(NC(=O)c1c(Cl)cccc1Cl)Nc1ccc(Br)cn1` belongs 228 to 230 °C; to `COC(=O)COc1ccc(OCCC2CCN(c3ccncc3)CC2)cc1`, 86 to 88 °C.
Under `CCC(C)(C)c1ccc(OCC(=O)Nc2cccc(C(C)=O)c2)c(C(C)(C)CC)c1` stands 135 °C.
Turning to `COc1ccc(C#N)c2c1OC1(CCCC1)C2`, the melting point lay in the range of 74 to 76 °C.
To `COC(=O)c1cc(C(=O)N2CCC(O)CC2)cc(-n2cccc2)c1` belongs 158 to 159 °C; to `CC1=NN(C(=O)NS(=O)(=O)N(C)S(=O)(=O)N(C)C)C(c2cccs2)C1` (stereo unspecified), 112 to 113 °C.
Under `Fc1ccc2c(c1)C(c1ccccc1F)=NCCN2C1=NCCO1` stands 180 to 181 °C; under `COCCNC(=O)c1ccc(CN2C(=O)C3(COc4cc5c(cc43)CCO5)c3ccccc32)cc1` (stereo unspecified), 182 to 183 °C; under `Cc1cc(C(=O)O)cc(C)c1OCCNC(=O)C1Cc2ccccc2N1S(=O)(=O)c1ccc(-c2ccc(F)cc2)cc1` (stereo unspecified), 124 to 128 °C.
Compound `CC(=O)NC[C@H]1CN(c2ccc(C3CCN(C=O)CC3)c(F)c2)C(=O)O1` registered a melting point of 186 to 187 °C.
To `Cc1ccc(-c2nc(N3CCN(C)CC3)c3c(C)c(C#N)sc3n2)cc1` belongs 207 to 209 °C; to `CC(C#N)=C1CCC2C3CCC4=CC(=O)CCC4(C)C3CCC12C` (stereo unspecified), 195 to 196 °C.
On to `OC1(F)OC(F)(F)C1(F)F` (stereo unspecified), for which the melting point lay in the range of 90 to 91 °C.
To `Nc1cccc2c1cnn2-c1ccc(F)cc1` belongs 84 to 88 °C; to `CC(=O)Nc1ccc(Nc2c(CC3CC4C=CC3C4)cc(C(=O)O)cc2S(=O)(=O)NC(C)=O)cc1` (stereo unspecified), 270 °C; to `CC(C)(C)NCC(O)COc1ccccc1-c1nc(C(F)(F)F)c[nH]1` (stereo unspecified), 105 to 107 °C.
To `CNc1c([N+](=O)[O-])ccc(Cl)c1Cl` belongs 82 °C; to `O=C1c2ccccc2C(=O)N1OCc1c(Cl)cccc1Cl`, 201 to 206 °C.
To `O=C(Cc1ccccc1N1CCCC1)N1C[C@@H]2[C@H](F)CCC(c3ccccc3)(c3ccccc3)[C@@H]2C1` belongs 170 °C.
Compound `NCc1cc2c(N)nccc2o1` displayed a melting point of 142 to 144 °C.
Under `CC(=O)c1c(C)[nH]c(-c2ccc(Cl)cc2)c1N` stands 205 to 208 °C; under `CC(C)(C)C(=O)CC(Sc1ccccc1)c1ccc(Cl)cc1Cl` (stereo unspecified), 79 to 80 °C; under `COc1ccc(C(=O)c2c[nH]c(Cc3ccccc3)n2)cc1`, 108 to 110 °C.
`CCOC(c1ccc(C=NO)cc1)(c1ccc2[nH]c(=O)cc(-c3cccc(Cl)c3)c2c1)c1cncn1C` (stereo unspecified): the melting point was determined as 232 °C.
Under `CN1CC(=O)Nc2ccc(C#N)cc2C1=O` stands 256 to 258 °C; under `COC(=O)[C@@H](Cc1ccccc1)NC(=O)Nc1n[nH]c(=S)s1`, 110 °C; under `Cc1nnc(-c2ccnc3[nH]c(CCc4ccccc4)cc23)o1`, 210 °C.
`O=C(O)C1=Cc2ccc(Cl)c(Cl)c2OC1C(F)(F)F` (stereo unspecified): the melting point fell in the range of 220 to 221 °C.
To `CCOC(=O)c1nccn1CCCCc1ccc(OCc2coc(/C=C/c3ccccc3)n2)cc1` belongs 96 to 97 °C; to `CCC1(CC(=O)O)OCCc2c1[nH]c1c(OCC(F)(F)F)c(Cl)ccc21` (stereo unspecified), 157 °C.
The compound `CC(C)(C)OC(=O)N[C@@H](Cc1cscn1)C(=O)O` gave a melting point of 115 °C.
As to `COC(=O)c1c(C(=O)OC)c(-c2ccc(OC)cc2)c2c3c(ccc2c1OC)OCO3`, the melting point was 166 to 167 °C.
To `CCOC(=O)CN1C(=O)C(=Cc2ccccc2)SC1=S` belongs 122 to 125 °C; to `O=C1CCC(CN2C(=O)C3(COc4cc5c(cc43)OCO5)c3ccccc32)N1` (stereo unspecified), 121 to 130 °C; to `CC(C)N1CCN(CCCOc2ccc3nc(C#N)nc(NCC(C)(C)C)c3c2)CC1`, 103 to 105 °C.
Under `Cc1cn(-c2cc(NC(=O)c3ccc(Cl)c(C#Cc4ccc(NC5CCC5)nn4)c3)cc(C(F)(F)F)c2)cn1` stands 225 to 227 °C; under `C#CC1(O)CCC2(C)C(CCC3C2CCC2(C)C(OC)CCC32)C1` (stereo unspecified), 62 to 65 °C; under `CN(C)S(=O)(=O)c1cc2cc(C(=O)O)oc2c(Cl)c1Cl`, 242 to 245 °C.
To `COc1cc(-n2c(-c3ccc(SC)cc3)nc(SC)c(C#N)c2=O)cc(OC)c1OC` belongs 192 to 195 °C; to `Oc1c(C(=S)NCc2ccc(Cl)cc2)cnc2ccc(CN3CCOCC3)cc12`, 215 to 216 °C; to `Cc1ccc2cccc(OCc3c(Cl)ccc(OCCNC(=O)CCc4ccccc4)c3Cl)c2n1`, 112 to 114 °C.
Take `CCCN(CCC)Cc1csc(-c2ncn3c2CN(C)C(=O)c2cc(F)ccc2-3)n1`: the melting point was in the range of 134 to 136 °C.
With `COc1cc(CN2CCN(c3cccc(C)c3Cl)CC2)cc(OC)c1OC`, the melting point is 112 to 113 °C.
To `CC(CCc1cccc(Cl)c1)NC(=O)n1nc(N(C)C)n(N)c1=O` (stereo unspecified) belongs 74 °C; to `CCCN(CCC)C1Cc2c(C(C)=O)ccc3c2C(CN3)C1` (single isomer, unassigned; (+)), 76 to 77 °C; to `CNc1nc(Nc2ccc(Cl)cc2F)ncc1N1CCNC1=O`, 249 °C.
With `CN1CCN(c2ccc3nnn(Cc4ccc5ncccc5c4)c3n2)CC1`, the melting point is 131 to 133 °C.
`N#Cc1ccc2ccn3cccc3c(=O)c2c1`: the melting point was in the range of 213 to 217 °C.
To `CCC(=NNc1ccccc1)c1cc(Cl)ccc1NS(=O)(=O)C(F)(F)F` belongs 128 to 129 °C; to `CN(OCc1nc2c(N)nc3ccccc3c2n1CC(C)(C)O)C(N)=O`, 206 to 207 °C.
In turn, `Cc1[nH]nc(NC2CCCCC2)c1C(=O)O` showed a melting point of 162 to 163 °C.
To `O=c1[nH]cnc2cc(Cl)sc12` belongs 238 to 239 °C; to `COC(=O)C1(C)Cc2c(OC)ccc(OC)c2CO1` (stereo unspecified), 73 to 74.5 °C.
To `O=C(NCCO[N+](=O)[O-])c1cnc(C(F)(F)F)s1` belongs 76 to 78 °C; to `Cc1cc(-n2c(C)nc3ccccc32)cc2ccc(=O)[nH]c12`, 307 to 313 °C.
The compound `CC1CCC(CNc2cc3oc(=O)[nH]c3cc2F)C(C)O1` (stereo unspecified) displayed a melting point of 123 to 139 °C.
Under `CCOc1cnccc1-c1nc2n(C3CCCC3)[nH]c(CC)c-2c(=O)n1` stands 179 to 180 °C.
To `CSCCCn1c(C)c(C(=O)c2cccc(Cl)c2Cl)c2cccc(Br)c21` belongs 119 °C; to `COC(=O)C(N)C(C)(C)SSc1ccccc1C(=O)Nc1ccc(S(N)(=O)=O)cc1` (stereo unspecified), 140 to 142 °C.
To `CNC(=O)/C(=N/OC)c1ccccc1CCl` belongs 72 to 74 °C; to `COc1nc(-c2c(F)cccc2F)nn1-c1ccccc1C(F)(F)F`, 118 to 119 °C.
In turn, `C#CCN(C(=O)CN)C(=O)OC` came in with a melting point of 77 to 80 °C.
In turn, `CN1CCN(C(=O)c2ccc(CCc3cc4cc(C#N)ccc4o3)cc2)CC1` came in with a melting point of 115 to 116 °C.
To `COc1ccc(-c2cc3cc(F)c(F)cc3[nH]2)cc1NS(=O)(=O)c1cc(Cl)cc(Cl)c1` belongs 217 to 219 °C.
Compound `O=C(O)c1cccc(Oc2ncccc2OCCCc2ccncc2)c1` registered a melting point of 208 to 209 °C.
The compound `O=C1C(Cc2ccccc2)SC(=S)N1c1nccs1` (stereo unspecified) showed a melting point of 164 to 165 °C.
On to `CS(=O)(=O)c1cnc(NC(=O)c2ccccc2O)s1`, for which the melting point fell in the range of 282 to 283 °C.
In turn, `C=Cc1ccccc1OC(C)C(=O)N1CCCC1` (stereo unspecified) returned a melting point of 85 to 86 °C.
As for `O=S(=O)(c1ccc(Cl)cc1)C(c1cc(F)ccc1F)c1cc(NCCc2ccncc2)ncc1Cl` (stereo unspecified), the melting point lay in the range of 148 to 150 °C.
To `Cc1cc(C)c2nsnc2c1[N+](=O)[O-]` belongs 105 to 106 °C; to `Cc1c(Sc2ccc(Cl)cc2)nn(-c2ccc3c(c2)OCO3)c(=O)c1C#N`, 166 to 168 °C.
As for `CC(=O)OC(C=C(C)C=CC=C(C)C=O)OC(C)=O`, the melting point is 99.5 °C.
Regarding `CC(O)c1ccccc1N` (stereo unspecified), the melting point lay within 50 to 52 °C.
To `Cc1oc(-c2ccccc2F)nc1CCOc1ccc(CN(O)C(N)=O)cc1` belongs 151 to 152 °C; to `CCC(=O)c1ccc(-c2ccc(Cl)cc2)o1`, 66 to 68 °C.
Under `COc1cc(OC)c(C23CC4CC(CC(C4)C2)C3)cc1C(=O)O` stands 213 to 214 °C.
To `CCc1nc(CC(=O)O)no1` belongs 58 to 60 °C; to `N#CC1(N)CCOCC1`, 46 to 47 °C.

The melting point is the temperature, or range, at which the solid turns liquid.
